This passage reports IC50 results from US10239843B2 (CANCER RESEARCH TECHNOLOGY LIMITED, priority 2014, dated 2019).

Like-named read-outs stand apart in the source and are kept apart here.

The target in one assay is Human Full Length PARG (Homo sapiens (Human), UniProt Q86W56). Put plainly: PARG enzyme assay (TR-FRET). The format is biochemical. Particulars: read-out: PARG Biochem IC50. (Time-resolved FRET reads energy transfer from a long-lived donor to a nearby acceptor.)
The test system of another assay is PARG in HeLa cell line. Put plainly: PARG cell assay (PAR chain immunofluorescence after MMS). The class given is cell-based. Conditions: HeLa cells, MMS treatment, read-out: PARG Cell IC50. An outline of the steps:
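Nuclear poly(ADP-ribose) chains in HeLa cells are read by indirect immunofluorescence with a mouse anti-PAR antibody applied overnight at 4° C after fixing and permeabilising. Cells get 1 h of compound, then 50 μg/mL MMS (final) for another hour. PAR persisting at that point reflects PARG inhibition.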

Chain of Human Full Length PARG (Q86W56 whole entry): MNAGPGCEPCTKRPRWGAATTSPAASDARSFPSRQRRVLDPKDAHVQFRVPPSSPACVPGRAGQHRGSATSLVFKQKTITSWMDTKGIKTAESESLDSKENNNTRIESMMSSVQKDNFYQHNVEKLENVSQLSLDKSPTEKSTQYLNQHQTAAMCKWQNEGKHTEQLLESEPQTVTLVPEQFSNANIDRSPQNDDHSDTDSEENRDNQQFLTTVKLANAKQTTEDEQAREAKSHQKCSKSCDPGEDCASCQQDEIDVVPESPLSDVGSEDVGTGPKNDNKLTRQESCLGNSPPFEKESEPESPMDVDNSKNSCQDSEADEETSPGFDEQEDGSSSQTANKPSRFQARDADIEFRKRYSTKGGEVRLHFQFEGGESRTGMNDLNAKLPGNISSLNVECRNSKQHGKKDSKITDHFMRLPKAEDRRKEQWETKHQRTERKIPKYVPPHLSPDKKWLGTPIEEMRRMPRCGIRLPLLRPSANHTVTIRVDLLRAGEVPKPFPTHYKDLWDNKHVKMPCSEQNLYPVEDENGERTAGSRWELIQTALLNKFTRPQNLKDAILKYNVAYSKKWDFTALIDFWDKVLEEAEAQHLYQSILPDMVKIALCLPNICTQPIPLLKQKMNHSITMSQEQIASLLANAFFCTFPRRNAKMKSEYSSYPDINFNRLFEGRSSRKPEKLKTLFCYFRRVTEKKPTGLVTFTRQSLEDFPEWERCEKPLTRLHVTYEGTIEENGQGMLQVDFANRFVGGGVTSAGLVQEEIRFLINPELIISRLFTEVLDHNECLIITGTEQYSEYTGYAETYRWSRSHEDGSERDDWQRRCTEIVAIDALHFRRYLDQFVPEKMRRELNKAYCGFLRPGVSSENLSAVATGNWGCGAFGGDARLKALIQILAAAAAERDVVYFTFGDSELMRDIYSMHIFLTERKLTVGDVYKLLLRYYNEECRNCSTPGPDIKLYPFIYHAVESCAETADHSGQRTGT

As to `Cc1nc(Cn2c(=O)n(Cc3cnn(C)c3)c(=O)c3cc(S(=O)(=O)NC4(CF)CC4)ccc32)co1` [Example 580, N-[1-(Fluoromethyl)cyclopropyl]-1-[(2-methyloxazol-4-yl)methyl]-3-[(1-methylpyrazol-4-yl)methyl]-2,4-dioxo-quinazoline-6-sulfonamide], the IC50 (commonly the point on the concentration scale where inhibition reaches its midpoint) was 69 nM at Human Full Length PARG and 46 nM in the assay on PARG in HeLa cell line (Homo sapiens).
In the case of `Cn1cc(Cn2c(=O)c3cc(S(=O)(=O)NC4(CF)CC4)ccc3n(Cc3cscn3)c2=O)cn1` [Example 581, N-[1-(Fluoromethyl)cyclopropyl]-3-[(1-methylpyrazol-4-yl)methyl]-2,4-dioxo-1-(thiazol-4-ylmethyl)quinazoline-6-sulfonamide], the results for the IC50 at Human Full Length PARG and in the assay with PARG in HeLa cell line were 57 nM and 55 nM, respectively.
Turning to `Cc1nc(Cn2c(=O)n(Cc3cnn(C)c3)c(=O)c3cc(S(=O)(=O)NC4(CF)CC4)ccc32)cs1` [Example 582, N-[1-(Fluoromethyl)cyclopropyl]-3-[(1-methylpyrazol-4-yl)methyl]-1-[(2-methylthiazol-4-yl)methyl]-2,4-dioxo-quinazoline-6-sulfonamide], the values for the IC50 at Human Full Length PARG and with PARG in HeLa cell line (Homo sapiens) were 160 nM and 73 nM, respectively.
For `Cc1nnc(Cn2c(=O)n(Cc3cnn(C)c3)c(=O)c3cc(S(=O)(=O)NC4(CF)CC4)ccc32)s1` [Example 583, N-[1-(Fluoromethyl)cyclopropyl]-3-[(1-methylpyrazol-4-yl)methyl]-1-[(5-methyl-1,3,4-thiadiazol-2-yl)methyl]-2,4-dioxo-quinazoline-6-sulfonamide] the same measures were 93 nM and 153 nM.
On to `Cn1cc(Cn2c(=O)c3cc(S(=O)(=O)NC4(CF)CC4)ccc3n(Cc3nncn3C)c2=O)cn1` [Example 584, N-[1-(Fluoromethyl)cyclopropyl]-3-[(1-methylpyrazol-4-yl)methyl]-1-[(4-methyl-1,2,4-triazol-3-yl)methyl]-2,4-dioxo-quinazoline-6-sulfonamide], for which the IC50 at Human Full Length PARG came out at 171 nM; in the assay on PARG in HeLa cell line, 25800 nM.
With `Cn1cc(Cn2c(=O)c3cc(S(=O)(=O)NC4(CF)CC4)ccc3n(Cc3ccno3)c2=O)cn1` [Example 585, N-[1-(Fluoromethyl)cyclopropyl]-1-(isoxazol-5-ylmethyl)-3-[(1-methylpyrazol-4-yl)methyl]-2,4-dioxo-quinazoline-6-sulfonamide], the results for the IC50 at Human Full Length PARG and in the assay on PARG in HeLa cell line (Homo sapiens) were 38 nM and 52 nM, respectively.
For `Cn1cc(Cn2c(=O)c3cc(S(=O)(=O)NC4(CF)CC4)ccc3n(Cc3cc[nH]n3)c2=O)cn1` [Example 586, N-[1-(Fluoromethyl)cyclopropyl]-3-[(1-methylpyrazol-4-yl)methyl]-2,4-dioxo-1-(1H-pyrazol-3-ylmethyl)quinazoline-6-sulfonamide] the same measures were 82 nM and 530 nM.
For `Cn1cc(Cn2c(=O)c3cc(S(=O)(=O)NC4(CF)CC4)ccc3n(Cc3nc[nH]n3)c2=O)cn1` [Example 587, N-[1-(Fluoromethyl)cyclopropyl]-3-[(1-methylpyrazol-4-yl)methyl]-2,4-dioxo-1-(1H-1,2,4-triazol-3-ylmethyl)quinazoline-6-sulfonamide] the same measures were 207 nM and 7980 nM.
For `Cn1cc(Cn2c(=O)c3cc(S(=O)(=O)NC4(CF)CC4)ccc3n(Cc3cncn3C)c2=O)cn1` [Example 588, N-[1-(Fluoromethyl)cyclopropyl]-1-[(3-methylimidazol-4-yl)methyl]-3-[(1-methylpyrazol-4-yl)methyl]-2,4-dioxo-quinazoline-6-sulfonamide] the same measures were 19 nM and 1500 nM.
For the compound `Cn1cc(Cn2c(=O)c3cc(S(=O)(=O)NC4(CF)CC4)ccc3n(Cc3nncs3)c2=O)cn1` [Example 589, N-[1-(Fluoromethyl)cyclopropyl]-3-[(1-methylpyrazol-4-yl)methyl]-2,4-dioxo-1-(1,3,4-thiadiazol-2-ylmethyl)quinazoline-6-sulfonamide], the IC50 on Human Full Length PARG worked out at 55 nM; in the assay on PARG in HeLa cell line (Homo sapiens), 187 nM.
For `Cn1cc(Cn2c(=O)c3cc(S(=O)(=O)NC4(CF)CC4)ccc3n(Cc3cn[nH]c3)c2=O)cn1` [Example 590, N-[1-(Fluoromethyl)cyclopropyl]-3-[(1-methylpyrazol-4-yl)methyl]-2,4-dioxo-1-(1H-pyrazol-4-ylmethyl)quinazoline-6-sulfonamide] the same measures were 30 nM and 773 nM.
For the compound `Cc1cc(Cn2c(=O)n(Cc3cnn(C)c3)c(=O)c3cc(S(=O)(=O)NC4(CF)CC4)ccc32)sn1` [Example 591, N-[1-(Fluoromethyl)cyclopropyl]-1-[(3-methylisothiazol-5-yl)methyl]-3-[(1-methylpyrazol-4-yl)methyl]-2,4-dioxo-quinazoline-6-sulfonamide], the IC50 at Human Full Length PARG is 30 nM; in the assay on PARG in HeLa cell line (Homo sapiens), 32 nM.
On to `Cc1n[nH]c(Cn2c(=O)n(Cc3cnn(C)c3)c(=O)c3cc(S(=O)(=O)NC4(CF)CC4)ccc32)n1` [Example 592, N-[1-(Fluoromethyl)cyclopropyl]-3-[(1-methylpyrazol-4-yl)methyl]-1-[(3-methyl-1H-1,2,4-triazol-5-yl)methyl]-2,4-dioxo-quinazoline-6-sulfonamide], for which the figures for the IC50 at Human Full Length PARG and in the assay on PARG in HeLa cell line (Homo sapiens) were 300 nM and 11400 nM, respectively.
For `Cn1cc(Cn2c(=O)c3cc(S(=O)(=O)NC4(CF)CC4)ccc3n(Cc3cn(C)nn3)c2=O)cn1` [Example 593, N-[1-(Fluoromethyl)cyclopropyl]-3-[(1-methylpyrazol-4-yl)methyl]-1-[(1-methyltriazol-4-yl)methyl]-2,4-dioxo-quinazoline-6-sulfonamide], the IC50 at Human Full Length PARG was 112 nM; in the assay on PARG in HeLa cell line, 523 nM.
In the case of `Cc1ncc(Cn2c(=O)n(Cc3cnn(C)c3)c(=O)c3cc(S(=O)(=O)NC4(CF)CC4)ccc32)s1` [Example 594, N-[1-(Fluoromethyl)cyclopropyl]-3-[(1-methylpyrazol-4-yl)methyl]-1-[(2-methylthiazol-5-yl)methyl]-2,4-dioxo-quinazoline-6-sulfonamide], the values for the half-maximal inhibitory concentration (IC50) at Human Full Length PARG and with PARG in HeLa cell line (Homo sapiens) were 25 nM and 22 nM, respectively.
For `Cn1cc(Cn2c(=O)c3cc(S(=O)(=O)NC4(CF)CC4)ccc3n(Cc3cnn(C)c3)c2=O)cn1` [Example 595, N-[1-(Fluoromethyl)cyclopropyl]-1,3-bis[(1-methylpyrazol-4-yl)methyl]-2,4-dioxo-quinazoline-6-sulfonamide] the same measures were 48 nM and 134 nM.
For the compound `Cn1cc(Cn2c(=O)c3cc(S(=O)(=O)NC4(CF)CC4)ccc3n(Cc3cnn(C)n3)c2=O)cn1` [Example 596, N-[1-(Fluoromethyl)cyclopropyl]-3-[(1-methylpyrazol-4-yl)methyl]-1-[(2-methyltriazol-4-yl)methyl]-2,4-dioxo-quinazoline-6-sulfonamide], the results for the IC50 on Human Full Length PARG and with PARG in HeLa cell line (Homo sapiens) were 85 nM and 96 nM, respectively.
For the compound `CCCn1c(=O)n(Cc2cnn(C)c2)c(=O)c2cc(S(=O)(=O)NC3(CF)CC3)ccc21` [Example 597, N-[1-(Fluoromethyl)cyclopropyl]-3-[(1-methylpyrazol-4-yl)methyl]-2,4-dioxo-1-propyl-quinazoline-6-sulfonamide], the IC50 came out at 100 nM on Human Full Length PARG and 86 nM with PARG in HeLa cell line (Homo sapiens).
